Experimental data reported in patent publication US10233180B2, “Substituted nitrogen-containing heterocyclic derivatives, pharmaceutical compositions comprising the same and applications of antitumor thereof” (ZHEJIANG UNIVERSITY, priority 2014, dated 2019).

How the values were obtained:
Akt1 = biological target: T1, Akt1 (Homo sapiens, UniProt P31749); experiment: AKT1/PKBα KinEASE FP Fluorescein Green Assay (fluorescence polarization kinase kit); type: biochemical; conditions: 1 h reaction, read-out: Inhibitory activities against Akt1 (IC50)
T1 construct: purchased 32-021
T1 sequence (P31749 whole entry): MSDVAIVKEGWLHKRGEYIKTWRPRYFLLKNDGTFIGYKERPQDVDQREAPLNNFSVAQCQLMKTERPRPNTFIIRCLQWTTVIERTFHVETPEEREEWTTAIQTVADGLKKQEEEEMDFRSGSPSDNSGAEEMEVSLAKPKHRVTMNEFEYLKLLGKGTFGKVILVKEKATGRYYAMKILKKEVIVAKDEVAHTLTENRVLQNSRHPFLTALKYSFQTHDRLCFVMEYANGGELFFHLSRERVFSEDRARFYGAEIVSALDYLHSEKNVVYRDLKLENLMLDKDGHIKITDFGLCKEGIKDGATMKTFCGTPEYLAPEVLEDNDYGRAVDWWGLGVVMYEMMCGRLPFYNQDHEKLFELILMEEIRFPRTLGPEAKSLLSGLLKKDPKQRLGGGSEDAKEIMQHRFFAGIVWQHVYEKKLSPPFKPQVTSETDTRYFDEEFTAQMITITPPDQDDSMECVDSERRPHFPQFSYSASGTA
Method in brief: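 FP competition kinase assay: compounds (50 μM stock) with STK Substrate 3 and ATP, 1 h reaction at room temperature; stopped with stop/antibody mix, 4 h at room temperature, then polarization read. Inhibition derived from polarization values; IC50 calculated; triplicate wells.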

[1] = test system: Human ovarian cancer cell strain OVCAR-8; experiment: MTT assay, inhibition of tumor cell growth in vitro, 72 h; type: cell-based; conditions: Homo sapiens, OVCAR-8, MTT, read-out: Antitumor proliferative activities of tumor cell (IC50, μM) OVCAR-8
Method in brief: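 OVCAR8 cells in RPMI 1640 plus FBS were seeded at 4000 cells/well and exposed for 72 h at 37 °C to compound at 50, 10, 2, 0.4 and 0.08 μM final, with 1% DMSO as blank. Inhibition was calculated from OD relative to control, and IC50 was derived by the Bliss method.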

[2] = test system: human colon cancer cell strain HCT-116; experiment: as above; type: cell-based; conditions: Homo sapiens, HCT-116, MTT, read-out: Antitumor proliferative activities of tumor cell (IC50, μM) HCT-116 (converted)
Method in brief: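 Cells in RPMI 1640 with FBS, 4000 cells/well, exposed 72 h at 37 °C, 5% CO2 to final 50, 10, 2, 0.4 and 0.08 μM; 1% DMSO blank. MTT OD gives % inhibition versus control; IC50 derived by Bliss method.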

Structure (SMILES) | IC50 (Akt1) [µM] | IC50 [1] [µM] | IC50 [2] [µM]
Cn1ncc(Cl)c1-c1cc(C(=O)N[C@@H]2CNC(CC(N)=O)C[C@H]2c2ccc(Cl)c(Cl)c2)oc1Cl (stereo partly drawn) [Compound 117, N-((3S,4S)-6-(2-amido-2-oxoethyl)-4-(3,4-dichlorophenyl)piperidin-3-yl)-5-chloro-4-(4-chloro-1-methyl-1H-pyrazol-5-yl)furan-2-formamide] | 0.003 | 0.92 | 4.28
CNC(=O)CC1C[C@@H](c2ccc(Cl)c(Cl)c2)[C@H](NC(=O)c2cc(-c3c(Cl)cnn3C)c(Cl)o2)CN1 (stereo partly drawn) [Compound 118, 5-chloro-4-(4-chloro-1-methyl-1H-pyrazol-5-yl)-N-((3S,4S)-4-(3,4-dichlorophenyl)-6-(2-(methylamido)-2-oxoethyl)piperidin-3-yl)furan-2-formamide] | 0.003 | 4.02 | 3.68
Cn1ncc(Cl)c1-c1cc(C(=O)N[C@@H]2CNC(CC(=O)NC3CC3)C[C@H]2c2ccc(Cl)c(Cl)c2)oc1Cl (stereo partly drawn) [Compound 119, 5-chloro-4-(4-chloro-1-methyl-1H-pyrazol-5-yl)-N-((3S,4S)-6-(2-(cyclopropylamido)-2-oxoethyl)-4-(3,4-dichlorophenyl)piperidin-3-yl)furan-2-formamide] | 0.004 | 0.65 | 1.47
Cn1ncc(Cl)c1-c1cc(C(=O)N[C@@H]2CNC(CC(=O)NC3CCC3)C[C@H]2c2ccc(Cl)c(Cl)c2)oc1Cl (stereo partly drawn) [Compound 120, 5-chloro-4-(4-chloro-1-methyl-1H-pyrazol-5-yl)-N-((3S,4S)-6-(2-(cyclobutylamido)-2-oxoethyl)-4-(3,4-dichlorophenyl)piperidin-3-yl)furan-2-formamide] | 0.003 | 0.45 | 0.44
Cn1ncc(Cl)c1-c1cc(C(=O)N[C@@H]2CNC(CC(=O)NCC(O)CO)C[C@H]2c2ccc(Cl)c(Cl)c2)oc1Cl (stereo partly drawn) [Compound 121, 5-chloro-4-(4-chloro-1-methyl-1H-pyrazol-5-yl)-N-((3S,4S)-4-(3,4-dichlorophenyl)-6-(2-((2,3-dihydroxypropyl)amido)-2-oxoethyl)piperidin-3-yl)furan-2-formamide] | 0.005 | 0.74 | 0.36
Cn1ncc(Cl)c1-c1cc(C(=O)N[C@@H]2CNC(CCn3cncn3)C[C@H]2c2ccc(Cl)c(Cl)c2)oc1Cl (stereo partly drawn) [Compound 122, N-((3S,4S)-6-(2-(1H-1,2,4-triazol-1-yl)ethyl)-4-(3,4-dichlorophenyl)piperidin-3-yl)-5-chloro-4-(4-chloro-1-methyl-1H-pyrazol-5-yl)furan-2-formamide] | 0.002 | 0.43 | 1.02
COCCC1C[C@@H](c2ccc(Cl)c(Cl)c2)[C@H](NC(=O)c2cc(-c3c(Cl)cnn3C)c(Cl)o2)CN1 (stereo partly drawn) [Compound 124, 5-chloro-4-(4-chloro-1-methyl-1H-pyrazol-5-yl)-N-((3S,4S)-4-(3,4-dichlorophenyl)-6-(2-methoxyethyl)piperidin-3-yl)furan-2-formamide] | 0.001 | 0.56 | 0.34
CC(=O)OCCC1C[C@@H](c2ccc(F)c(F)c2)[C@H](NC(=O)c2cc(-c3c(Cl)cnn3C)c(Cl)o2)CN1 (stereo partly drawn) [Compound 131, 2-((4S,5S)-5-(5-chloro-4-(4-chloro-1-methyl-1H-pyrazol-5-yl)furan-2-formamido)-4-(3,4-difluorophenyl)piperidin-2-yl)ethylacetate] | 0.0008 | 4.69 | 0.92
Cn1ncc(Cl)c1-c1cc(C(=O)N[C@@H]2CNC(CCOC(=O)C(F)(F)F)C[C@H]2c2ccc(F)c(F)c2)oc1Cl (stereo partly drawn) [Compound 132, 2-((4S,5S)-5-(5-chloro-4-(4-chloro-1-methyl-1H-pyrazol-5-yl)furan-2-formamido)-4-(3,4-difluorophenyl)piperidin-2-yl)ethyl 2,2,2-trifluoroacetate] | 0.002 | 1.33 | 1.21
CNC(=O)CC1C[C@@H](c2ccc(F)c(F)c2)[C@H](NC(=O)c2cc(-c3c(Cl)cnn3C)cs2)CN1 (stereo partly drawn) [Compound 133, 4-(4-chloro-1-methyl-1H-pyrazol-5-yl)-N-((3S,4S)-4-(3,4-difluorophenyl)-6-(2-(methylamido)-2-oxyethyl)piperidin-3-yl)thiophene-2-formamide] | 0.003 | 5.79 | 0.42
C[C@H]1CNC[C@@H](NC(=O)c2cc(-c3c(Cl)cnn3C)c(Cl)s2)[C@@H]1c1cccc(F)c1 [Compound 135, 5-chloro-4-(4-chloro-1-methyl-1H-pyrazol-5-yl)-N-((3S, 4S, 5R)-4-(3-fluorophenyl)-5-methylpiperidin-3-yl)thiophene-2-formamide] | 0.012 | 1.2 | 0.8
C[C@H]1CNC[C@@H](NC(=O)c2cc(-c3c(Cl)cnn3C)c(Cl)o2)[C@@H]1c1cccc(F)c1 [Compound 136, 5-chloro-4-(4-chloro-1-methyl-1H-pyrazol-5-yl)-N-((3S, 4S, 5R)-4-(3-fluorophenyl)-5-methylpiperidin-3-yl)furan-2-formamide] | 0.002 | 3.68 | 2.81
CCC[C@H]1CNC[C@@H](NC(=O)c2cc(-c3c(Cl)cnn3C)c(Cl)o2)[C@@H]1c1cccc(F)c1 [Compound 137, 5-chloro-4-(4-chloro-1-methyl-1H-pyrazol-5-yl)-N-((3S, 4S, 5R)-4-(3-fluorophenyl)-5-propylpiperidin-3-yl)furan-2-formamide] | 0.001 | 1.88 | 0.43
Cn1ncc(Cl)c1-c1ccc(C(=O)N[C@@H]2CNCC[C@H]2c2cccc(F)c2)s1 [Compound 138, 5-(4-chloro-1-methyl-1H-pyrazol-5-yl)-N-((3S,4S)-4-(3-fluorophenyl)piperidin-3-yl)thiophene-2-formamide] | 0.001 | 3.01 | 0.56

Stronger by IC50 (Akt1), values ahead:

IC50 (Akt1) [µM] | IC50 [1] [µM] | IC50 [2] [µM] | Structure (SMILES)
0.0005 | 0.92 | 0.95 | Cn1ncc(Cl)c1-c1cc(C(=O)N[C@@H]2CNC(CC(O)CO)C[C@H]2c2ccc(F)c(F)c2)oc1Cl (stereo partly drawn) [Compound 128, 5-chloro-4-(4-chloro-1-methyl-1H-pyrazol-5-yl)-N-((3S,4S)-4-(3,4-difluorophenyl)-6-(2,3-dihydroxypropyl)piperidin-3-yl)furan-2-formamide]
0.0005 | 1.06 | 4.1 | CCCC1C[C@@H](c2ccc(Cl)c(Cl)c2)[C@H](NC(=O)c2cc(-c3c(Cl)cnn3C)c(Cl)o2)CN1 (stereo partly drawn) [Compound 130, 5-chloro-4-(4-chloro-1-methyl-1H-pyrazol-5-yl)-N-((3S,4S)-4-(3,4-dichlorophenyl)-6-propylpiperidin-3-yl)furan-2-formamide]
0.0004 | 0.51 | 0.78 | Cn1ncc(Cl)c1-c1cc(C(=O)N[C@@H]2CNC(CCO)C[C@H]2c2ccc(F)c(F)c2)oc1Cl (stereo partly drawn) [Compound 129, 5-chloro-4-(4-chloro-1-methyl-1H-pyrazol-5-yl)-N-((3S,4S)-4-(3,4-difluorophenyl)-6-(2-hydroxyethyl)piperidin-3-yl)furan-2-formamide]
0.0003 | 0.67 | 0.89 | Cn1ncc(Cl)c1-c1cc(C(=O)N[C@@H]2CNC(CCNS(C)(=O)=O)C[C@H]2c2ccc(F)c(F)c2)oc1Cl (stereo partly drawn) [Compound 127, 5-chloro-4-(4-chloro-1-methyl-1H-pyrazol-5-yl)-N-((3S,4S)-4-(3,4-difluorophenyl)-6-(2-(methylsulfonamido)ethyl)piperidin-3-yl)furan-2-formamide]
0.0003 | 0.53 | 0.69 | CCC[C@H]1CNC[C@@H](NC(=O)c2cc(-c3c(Cl)cnn3C)c(Cl)s2)[C@@H]1c1cccc(F)c1 [Compound 134, 5-chloro-4-(4-chloro-1-methyl-1H-pyrazol-5-yl)-N-((3S,4S,5R)-4-(3-fluorophenyl)-5-propylpiperidin-3-yl)thiophene-2-formamide]
0.0002 | 0.47 | 5.82 | CC(=O)NCCC1C[C@@H](c2ccc(F)c(F)c2)[C@H](NC(=O)c2cc(-c3c(Cl)cnn3C)c(Cl)o2)CN1 (stereo partly drawn) [Compound 126, N-((3S,4S)-6-(2-acetaminoethyl)-4-(3,4-difluorophenyl)piperidin-3-yl)-5-chloro-4-(4-chloro-1-methyl-1H-pyrazol-5-yl)furan-2-formamide]
0.0001 | 0.09 | 0.07 | Cn1ncc(Cl)c1-c1cc(C(=O)N[C@@H]2CNC(CCNCC(O)CO)C[C@H]2c2ccc(Cl)c(Cl)c2)oc1Cl (stereo partly drawn) [Compound 123, 5-chloro-4-(4-chloro-1-methyl-1H-pyrazol-5-yl)-N-((3S,4S)-4-(3,4-dichlorophenyl)-6-(2-((2,3-dihydroxypropyl)amido)ethyl)piperidin-3-yl)furan-2-formamide]
0.0001 | 0.12 | 1.25 | Cn1ncc(Cl)c1-c1cc(C(=O)N[C@@H]2CNC(CC(=O)NCCO)C[C@H]2c2ccc(Cl)c(Cl)c2)oc1Cl (stereo partly drawn) [Compound 125, 5-chloro-4-(4-chloro-1-methyl-1H-pyrazol-5-yl)-N-((3S,4S)-4-(3,4-dichlorophenyl)-6-(2-((2-hydroxyethyl)amido)-2-oxoethyl)piperidin-3-yl)furan-2-formamide]
